Data taken from patent US20060005464A1, “Alkyl ethanolamine and biocide combination for hydrocarbon based fuels” (priority 2004, published 2006).

Key:
Format in all cases: cell-based
[1] = tested on: Pseudomonas Aeruginosa (ATCC27853); experiment: Microtiter plate growth of Pseudomonas Aeruginosa with amines and GROTAN; settings: for growth of Pseudomonas Aeruginosa (Table 1 entry): pH 8.5, 24 hours
[2] = tested on: Mycobacterium smegmatis (ATCC # 19420); experiment: End-point optical density of Mycobacterium smegmatis with N-alkyl alkanolamines (590 nm, 72 h); settings: for end-point optical density: 590 nm, after 72 hours, pH 8.5, tetrazolium dye
[3] = tested on: Pseudomonas aeruginosa (ATCC 10145); experiment: Maximum growth slope of Pseudomonas aeruginosa with Proxel DB20 (BIT) plus alkanolamine; settings: pH 8.5, TSB, 24 hour
Protocol: A culture of Pseudomonas aeruginosa (ATCC 10145) at pH=8.5 in TSB (trypticase soy broth) media was prepared. The biocide Proxel DB20 (20% suspension of benzoisothiazolone (BIT) in water), as sold by Avecia, was added at varying concentrations in combination with 1000 ppm or 2000 ppm of the alkanolamines N-butylaminoethanol (BAE), 2-amino-2-methyl-1-propanol (AMP), dibutylaminoethanol (DBAE) or n-octylaminoethanol (OAE). Optical density measurements were taken every 15 minutes over a 24 hour time period (total of 96 data points). The maximum growth slope was calculated by taking the 10 contiguous data points that result in the highest growth slope (units of OD per time) over a 24 hour period. Those 10 data points were subjected to a least squares linear fit to calculate the maximum growth slope.

[4] = tested on: Aureobasidium pullulans (ATCC 12536); experiment: End-point optical density of Aureobasidium pullulans with MIT/CMIT plus alkanolamine; settings: SAB media pH 8.5
Protocol: The impact of N-alkylalkanolamines on the control of the bacterial species Aureobasidium pullulans (ATCC 12536), a bacteria common in water-oil systems, was evaluated by measuring optical absorbance of samples treated with various concentrations of N-alkyl alkanolamines. […] SAB media at pH 8.5 (Tris buffer) was employed. Table 8 summarizes measurement of end-point optical density after 24 hours and 48 hours: […]

[5] = tested on: Mycobacterium smegmatis (ATCC # 19420); experiment: End-point optical density and MIC, Mycobacterium smegmatis (660 nm, 48 h); settings: for MIC (estimate of the concentration range in which the amine starts to inhibit growth): 48 hours; for end-point optical density: 660 nm, after 48 hours
Protocol: (§1) The impact of N-alkylalkanolamines on the control of the bacterial species Mycobacterium smegmatis (ATCC # 19420), a bacteria common in water-oil systems, was evaluated by measuring optical absorbance of samples treated with various alkyl ethanolaminesis DCHA=Dicyclohexylamine, OAE=Octylaminoethanol, ODEA=Octyldiethanolamine. Bacterial concentration was monitored indirectly via optical absorbance at 660 nm. The values reported are end-point optical densities in milliOD units after 48 hours. The media consisted of a standardized solution of clear nutrient broth (Middlebrook 7H10 with OADC supplement), amine, buffer (Tris) and water. The pH was adjusted initially to 8.5 with Tris buffer. The first column in the Table gives the amine concentration in ppm. The final two columns give data for cells that also contained 2 grams per liter of boric acid. In all cases, the values are averages of at least three replicates. The final row of the Table gives an estimate of the concentration range in which the amine in question starts to inhibit the growth of this bacterial species.

[6] = tested on: Mycobacterium marinum (ATCC # 19420); experiment: End-point optical density and MIC, Mycobacterium marinum (660 nm, 72 h); settings: pH 8.5; for MIC (estimate of the concentration range in which the amine starts to inhibit growth): 72 hours; for end-point optical density: 660 nm, after 72 hours
Protocol: as §1
The impact of the N-alkylalkanolamines of Example 6 on the control of the bacterial species Mycobacterium marinum (ATCC # 19420), bacteria common in water-oil systems, was evaluated as described above in Example 6. Bacterial concentration in the experimental media was monitored indirectly via optical absorbance at 660 nm. The values reported are end-point optical densities in milliOD units after 72 hours. The media consisted of a standardized solution of clear nutrient broth (Middlebrook 7H10 with OADC supplement), amine, buffer (Tris) and water. The pH was adjusted initially to 8.5 with Tris buffer. The first column in the Table gives the amine concentration in ppm. In all cases, the values are averages of at least three replicates. The final row of the Table gives an estimate of the concentration range in which the amine in question starts to inhibit the growth of this bacterial species.

[7] = amine 2000 ppm plus GROTAN 100 ppm
[8] = amine 2000 ppm plus GROTAN 250 ppm
[9] = amine 2000 ppm plus GROTAN 500 ppm
[10] = amine 2000 ppm plus GROTAN 1000 ppm
[11] = amine 2000 ppm plus GROTAN 2000 ppm
[12] = amine 4000 ppm plus GROTAN 100 ppm
[13] = amine 4000 ppm plus GROTAN 250 ppm
[14] = amine 4000 ppm plus GROTAN 500 ppm
[15] = amine 4000 ppm plus GROTAN 1000 ppm
[16] = amine 4000 ppm plus GROTAN 2000 ppm
[17] = amine 1000 ppm plus BIT 150 ppm
[18] = amine 1000 ppm plus BIT 250 ppm
[19] = amine 1000 ppm plus BIT 500 ppm
[20] = amine 2000 ppm plus BIT 150 ppm
[21] = amine 2000 ppm plus BIT 250 ppm
[22] = amine 2000 ppm plus BIT 500 ppm
[23] = amine 500 ppm plus 2 grams per liter of boric acid
[24] = amine 1000 ppm plus 2 grams per liter of boric acid
[25] = amine 2000 ppm plus 2 grams per liter of boric acid
[26] = with 2 grams per liter of boric acid

Structure (SMILES): CCCCN(CCO)CCO [BDEA, butyldiethanolamine]
- growth of Pseudomonas Aeruginosa (Table 1 entry) [1, 7]: 0.52
- growth of Pseudomonas Aeruginosa (Table 1 entry) [1, 8]: 0.72
- growth of Pseudomonas Aeruginosa (Table 1 entry) [1, 9]: 0.79
- growth of Pseudomonas Aeruginosa (Table 1 entry) [1, 10]: 0.32
- growth of Pseudomonas Aeruginosa (Table 1 entry) [1, 11]: 0.33
- growth of Pseudomonas Aeruginosa (Table 1 entry) ([1]; amine 2000 ppm, GROTAN 0 ppm): 0.67
- growth of Pseudomonas Aeruginosa (Table 1 entry) [1, 12]: 0.67
- growth of Pseudomonas Aeruginosa (Table 1 entry) [1, 13]: 0.51
- growth of Pseudomonas Aeruginosa (Table 1 entry) [1, 14]: 0.30
- growth of Pseudomonas Aeruginosa (Table 1 entry) [1, 15]: 0.28
- growth of Pseudomonas Aeruginosa (Table 1 entry) [1, 16]: 0.33
- growth of Pseudomonas Aeruginosa (Table 1 entry) ([1]; amine 4000 ppm, GROTAN 0 ppm): 0.45
- enhancement in the biocidal effect of GROTAN ([1]; conclusion from Table 1): provide an enhancement in the biocidal effect of GROTAN®

Structure (SMILES): CCCCN(CCO)CCCC [DBAE, dibutylaminoethanol]
- end-point optical density ([2]; amine 470 ppm): 2000 milliOD
- end-point optical density ([2]; amine 940 ppm): 2000 milliOD
- end-point optical density ([2]; amine 1880 ppm): 2000 milliOD
- end-point optical density ([2]; amine 3750 ppm): 1900 milliOD
- end-point optical density ([2]; amine 7500 ppm): 1200 milliOD
- maximum growth slope [3, 17]: 0.221 OD per time
- maximum growth slope [3, 18]: 0.255 OD per time
- maximum growth slope [3, 19]: 0.143 OD per time
- maximum growth slope ([3]; amine 1000 ppm, BIT 0 ppm): 0.228 OD per time
- maximum growth slope [3, 20]: 0.084 OD per time
- maximum growth slope [3, 21]: 0.104 OD per time
- maximum growth slope [3, 22]: 0.000 OD per time
- maximum growth slope ([3]; amine 2000 ppm, BIT 0 ppm): 0.114 OD per time
- end-point optical density ([4]; amine 1000 ppm plus 50 ppm MIT/CMIT, 24 hours): 0.3
- end-point optical density ([4]; amine 1000 ppm plus 50 ppm MIT/CMIT, 48 hours): 0.4
- end-point optical density ([4]; amine 2000 ppm plus 50 ppm MIT/CMIT, 24 hours): 0.2
- end-point optical density ([4]; amine 2000 ppm plus 50 ppm MIT/CMIT, 48 hours): 0.2

Structure (SMILES): C1CCC(NC2CCCCC2)CC1 [DCHA, Dicyclohexylamine, reference compound]
- MIC (estimate of the concentration range in which the amine starts to inhibit growth) ([5]; pH 8.5, no boric acid): 1500-2000 ppm
- end-point optical density [5, 23]: 1.125 milliOD
- end-point optical density ([5]; amine 500 ppm, pH 8.5): 1.02 milliOD
- end-point optical density [5, 24]: 0.855 milliOD
- end-point optical density ([5]; amine 1000 ppm, pH 8.5): 0.802 milliOD
- end-point optical density ([5]; amine 1500 ppm, pH 8.5): 0.995 milliOD
- end-point optical density [5, 25]: 0.085 milliOD
- end-point optical density ([5]; amine 2000 ppm, pH 8.5): 0.268 milliOD
- MIC (estimate of the concentration range in which the amine starts to inhibit growth) [5, 26]: 1000-2000 ppm
- MIC (estimate of the concentration range in which the amine starts to inhibit growth) [6]: >4000 ppm
- end-point optical density ([6]; amine 400 ppm): 0.6 milliOD
- end-point optical density ([6]; amine 800 ppm): 0.6 milliOD
- end-point optical density ([6]; amine 1200 ppm): 0.5 milliOD
- end-point optical density ([6]; amine 2000 ppm): 0.4 milliOD
- end-point optical density ([6]; amine 4000 ppm): 0.4 milliOD

Structure (SMILES): CCCCCCCCNCCO [OAE, n-octylaminoethanol]
- end-point optical density ([2]; amine 470 ppm): 0 milliOD
- end-point optical density ([2]; amine 940 ppm): 0 milliOD
- end-point optical density ([2]; amine 1880 ppm): 0 milliOD
- end-point optical density ([2]; amine 3750 ppm): 0 milliOD
- end-point optical density ([2]; amine 7500 ppm): 0 milliOD
- effectiveness against Mycobacteria ([2]; compared with AMP, conclusion from Table 5): markedly more effective than AMP
- maximum growth slope [3, 17]: 0.000 OD per time
- maximum growth slope [3, 18]: 0.000 OD per time
- maximum growth slope [3, 19]: 0.000 OD per time
- maximum growth slope ([3]; amine 1000 ppm, BIT 0 ppm): 0.000 OD per time
- maximum growth slope [3, 20]: 0.000 OD per time
- maximum growth slope [3, 21]: 0.000 OD per time
- maximum growth slope [3, 22]: 0.000 OD per time
- maximum growth slope ([3]; amine 2000 ppm, BIT 0 ppm): 0.000 OD per time
- MIC (estimate of the concentration range in which the amine starts to inhibit growth) ([5]; pH 8.5, no boric acid): <500 ppm
- end-point optical density [5, 23]: 0.100 milliOD
- end-point optical density ([5]; amine 500 ppm, pH 8.5): 0.184 milliOD
- end-point optical density [5, 24]: 0.121 milliOD
- end-point optical density ([5]; amine 1000 ppm, pH 8.5): 0.149 milliOD
- end-point optical density ([5]; amine 1500 ppm, pH 8.5): 0.213 milliOD
- end-point optical density [5, 25]: 0.015 milliOD
- end-point optical density ([5]; amine 2000 ppm, pH 8.5): 0.226 milliOD
- end-point optical density ([5]; amine 4000 ppm, pH 8.5): 0.205 milliOD
- MIC (estimate of the concentration range in which the amine starts to inhibit growth) [5, 26]: <500 ppm
- end-point optical density ([4]; amine 200 ppm plus 50 ppm MIT/CMIT, 24 hours): 0.1
- end-point optical density ([4]; amine 200 ppm plus 50 ppm MIT/CMIT, 48 hours): 0.1
- end-point optical density ([4]; amine 500 ppm plus 50 ppm MIT/CMIT, 24 hours): 0
- end-point optical density ([4]; amine 500 ppm plus 50 ppm MIT/CMIT, 48 hours): 0
- MIC (estimate of the concentration range in which the amine starts to inhibit growth) [6]: 1200-2000 ppm
- end-point optical density ([6]; amine 400 ppm): 0.4 milliOD
- end-point optical density ([6]; amine 800 ppm): 0.4 milliOD
- end-point optical density ([6]; amine 1200 ppm): 0.4 milliOD
- end-point optical density ([6]; amine 2000 ppm): 0 milliOD
- end-point optical density ([6]; amine 4000 ppm): 0 milliOD

Structure (SMILES): CCCCCCCCN(CCO)CCO [ODEA, Octyldiethanolamine]
- MIC (estimate of the concentration range in which the amine starts to inhibit growth) ([5]; pH 8.5, no boric acid): 500-1000 ppm
- end-point optical density ([5]; amine 500 ppm, pH 8.5): 0.847 milliOD
- end-point optical density ([5]; amine 1000 ppm, pH 8.5): 0.117 milliOD
- end-point optical density ([5]; amine 1500 ppm, pH 8.5): 0.260 milliOD
- end-point optical density ([5]; amine 2000 ppm, pH 8.5): 0.225 milliOD
- MIC (estimate of the concentration range in which the amine starts to inhibit growth) [6]: 1200-2000 ppm
- end-point optical density ([6]; amine 400 ppm): 0.6 milliOD
- end-point optical density ([6]; amine 800 ppm): 0.4 milliOD
- end-point optical density ([6]; amine 1200 ppm): 0.4 milliOD
- end-point optical density ([6]; amine 2000 ppm): 0.1 milliOD
- end-point optical density ([6]; amine 4000 ppm): 0 milliOD

Structure (SMILES): CC(C)(C)NCCO [TBAE, tert-butylaminoethanol]
- growth of Pseudomonas Aeruginosa (Table 1 entry) [1, 7]: 0.72
- growth of Pseudomonas Aeruginosa (Table 1 entry) [1, 8]: 0.69
- growth of Pseudomonas Aeruginosa (Table 1 entry) [1, 9]: 0.83
- growth of Pseudomonas Aeruginosa (Table 1 entry) [1, 10]: 0.30
- growth of Pseudomonas Aeruginosa (Table 1 entry) [1, 11]: 0.35
- growth of Pseudomonas Aeruginosa (Table 1 entry) ([1]; amine 2000 ppm, GROTAN 0 ppm): 0.67
- growth of Pseudomonas Aeruginosa (Table 1 entry) [1, 12]: 0.58
- growth of Pseudomonas Aeruginosa (Table 1 entry) [1, 13]: 0.59
- growth of Pseudomonas Aeruginosa (Table 1 entry) [1, 14]: 0.34
- growth of Pseudomonas Aeruginosa (Table 1 entry) [1, 15]: 0.28
- growth of Pseudomonas Aeruginosa (Table 1 entry) [1, 16]: 0.36
- growth of Pseudomonas Aeruginosa (Table 1 entry) ([1]; amine 4000 ppm, GROTAN 0 ppm): 0.55
